Assay results taken from ChEMBL document CHEMBL1148579, “Influence of various central moieties on the hypolipidemic properties of long hydrocarbon chain diols and diacids” (J Med Chem, 2006).

Legend:
Rattus norvegicus [1] = experiment: Activity against non high density lipoprotein cholesterol level in obese female Zucker rat serum after 1 week at 100 mg/kg (percent change from pre-treatment); assay type: functional
Rattus norvegicus [2] = experiment: Activity against triglyceride level in obese female Zucker rat serum after 1 week at 100 mg/kg (percent change from pre-treatment); assay type: functional
Rattus norvegicus [3] = experiment: Activity against high density lipoprotein cholesterol level in obese female Zucker rat serum after 2 weeks at 100 mg/kg (percent change from pre-treatment); assay type: functional
Hepatocyte = experiment: Inhibition of lipid synthesis in primary rat hepatocytes by incorporation radiolabeled acetate into cellular lipids; assay type: functional, cell-based, Sprague-Dawley
Rattus norvegicus [4] = experiment: Activity against high density lipoprotein cholesterol level in obese female Zucker rat serum after 1 week at 100 mg/kg (percent change from pre-treatment); assay type: functional
Rattus norvegicus [5] = experiment: Activity against non high density lipoprotein cholesterol level in obese female Zucker rat serum after 2 weeks at 100 mg/kg (percent change from pre-treatment); assay type: functional
Rattus norvegicus [6] = experiment: Activity against triglyceride level in obese female Zucker rat serum after 2 weeks at 100 mg/kg (percent change from pre-treatment); assay type: functional
Rattus norvegicus [7] = experiment: Activity against high density lipoprotein cholesterol level in obese female Zucker rat serum after 1 week at 30 mg/kg (percent change from pre-treatment); assay type: functional
Rattus norvegicus [8] = experiment: Activity against non high density lipoprotein cholesterol level in obese female Zucker rat serum after 2 weeks at 30 mg/kg (percent change from pre-treatment); assay type: functional
Rattus norvegicus [9] = experiment: Activity against triglyceride level in obese female Zucker rat serum after 1 week at 30 mg/kg (percent change from pre-treatment); assay type: functional
Rattus norvegicus [10] = experiment: Activity against non high density lipoprotein cholesterol level in obese female Zucker rat serum after 1 week at 30 mg/kg (percent change from pre-treatment); assay type: functional
Rattus norvegicus [11] = experiment: Activity against triglyceride level in obese female Zucker rat serum after 2 weeks at 30 mg/kg (percent change from pre-treatment); assay type: functional
Rattus norvegicus [12] = experiment: Activity against high density lipoprotein cholesterol level in obese female Zucker rat serum after 2 weeks at 30 mg/kg (percent change from pre-treatment); assay type: functional
Rattus norvegicus [13] = experiment: Activity against high density lipoprotein cholesterol level in obese female Zucker rat serum after 1 week at 80 mg/kg (percent change from pre-treatment); assay type: functional
Rattus norvegicus [14] = experiment: Activity against high density lipoprotein cholesterol level in obese female Zucker rat serum after 2 weeks at 80 mg/kg (percent change from pre-treatment); assay type: functional
Rattus norvegicus [15] = experiment: Activity against triglyceride level in obese female Zucker rat serum after 2 weeks at 80 mg/kg (percent change from pre-treatment); assay type: functional
Rattus norvegicus [16] = experiment: Activity against non high density lipoprotein cholesterol level in obese female Zucker rat serum after 2 weeks at 80 mg/kg (percent change from pre-treatment); assay type: functional
Rattus norvegicus [17] = experiment: Activity against triglyceride level in obese female Zucker rat serum after 1 week at 80 mg/kg (percent change from pre-treatment); assay type: functional
Rattus norvegicus [18] = experiment: Activity against non high density lipoprotein cholesterol level in obese female Zucker rat serum after 1 week at 80 mg/kg (percent change from pre-treatment); assay type: functional
Rattus norvegicus [19] = experiment: Tolerability of compound upto 2000 mg/kg; assay type: organism-based; parameters: dose 2000 mg/kg; settings: in vivo
[20] = Rattus norvegicus, Sprague-Dawley, Hepatocyte, read-out: IC50

CC(C)(CO)CCCCNC(=O)OCCCCC(C)(C)CO
Activity (Rattus norvegicus [1]): 10%
Activity (Rattus norvegicus [2]): -52%
Activity (Rattus norvegicus [3]): 65%
IC50 (Hepatocyte; [20]): 0.8 µM
Activity (Rattus norvegicus [4]): 60%
Activity (Rattus norvegicus [5]): 84%
Activity (Rattus norvegicus [6]): -4%

CC(C)(CO)CCCCN(O)CCCCC(C)(C)CO
Activity (Rattus norvegicus [7]): 27%
Activity (Rattus norvegicus [8]): -5%
Activity (Rattus norvegicus [9]): -26%
Activity (Rattus norvegicus [10]): -40%
IC50 (Hepatocyte; [20]): 63 µM
Activity (Rattus norvegicus [11]): 13%
Activity (Rattus norvegicus [12]): 19%

CC(C)(CO)CCC[S+]([O-])CCCC(C)(C)CO
Activity (Rattus norvegicus [1]): 40%
Activity (Rattus norvegicus [2]): -36%
Activity (Rattus norvegicus [3]): 93%
IC50 (Hepatocyte; hepatocyte): Not Active
Activity (Rattus norvegicus [4]): 54%
Activity (Rattus norvegicus [5]): 12%
Activity (Rattus norvegicus [6]): -5%

CC(CO)(CCC[S+]([O-])CCCC(C)(CO)c1ccccc1)c1ccccc1 (stereo unspecified)
Activity (Rattus norvegicus [13]): -23%
Activity (Rattus norvegicus [14]): -36%
IC50 (Hepatocyte; hepatocyte): Not Active
Activity (Rattus norvegicus [15]): 41%
Activity (Rattus norvegicus [16]): 81%
Activity (Rattus norvegicus [17]): 18%
Activity (Rattus norvegicus [18]): 68%

CC(C)(CO)CCCCCCCCCC(C)(C)CO
Activity (Rattus norvegicus [1]): -67%
Activity (Rattus norvegicus [2]): -83%
Activity (Rattus norvegicus [3]): 137%
Activity (Rattus norvegicus [4]): 189%
Activity (Rattus norvegicus [5]): -75%
Activity (Rattus norvegicus [6]): -82%

CC(C)(CO)CCCCOCCCCC(C)(C)CO
Activity (Rattus norvegicus [1]): -38%
Activity (Rattus norvegicus [2]): -77%
Activity (Rattus norvegicus [3]): 366%
IC50 (Hepatocyte; [20]): 10.7 µM
Activity (Rattus norvegicus [4]): 234%
Activity (Rattus norvegicus [19]): Active
Activity (Rattus norvegicus [5]): 11%
Activity (Rattus norvegicus [6]): -71%

CC(C)(CCCCCC(=O)CCCCCC(C)(C)C(=O)O)C(=O)O
Activity (Rattus norvegicus [1]): -98%
Activity (Rattus norvegicus [2]): -93%
Activity (Rattus norvegicus [3]): 168%
Activity (Rattus norvegicus [4]): 72%
Activity (Rattus norvegicus [5]): -99%
Activity (Rattus norvegicus [6]): -94%

CC(C)(CO)CCCCC(CO)CCCCC(C)(C)CO
Activity (Rattus norvegicus [1]): -43%
Activity (Rattus norvegicus [2]): -52%
Activity (Rattus norvegicus [3]): -2%
IC50 (Hepatocyte; [20]): 15 µM
Activity (Rattus norvegicus [4]): 2%
Activity (Rattus norvegicus [5]): -12%
Activity (Rattus norvegicus [6]): -23%

CC(C)(CO)CCCCOC(=O)CCCCC(C)(C)CO
Activity (Rattus norvegicus [1]): -25%
Activity (Rattus norvegicus [2]): -20%
Activity (Rattus norvegicus [3]): 23%
IC50 (Hepatocyte; [20]): 13 µM
Activity (Rattus norvegicus [4]): 18%
Activity (Rattus norvegicus [5]): -5%
Activity (Rattus norvegicus [6]): 7%

CC(C)(CO)CCCCNC(=O)CCCCC(C)(C)CO
Activity (Rattus norvegicus [7]): 2%
Activity (Rattus norvegicus [8]): -7%
Activity (Rattus norvegicus [9]): -20%
Activity (Rattus norvegicus [10]): -21%
IC50 (Hepatocyte; hepatocyte): Not Active
Activity (Rattus norvegicus [11]): -10%
Activity (Rattus norvegicus [12]): 20%

CC(CO)(CCCSCCCC(C)(CO)c1ccccc1)c1ccccc1 (stereo unspecified)
Activity (Rattus norvegicus [1]): -26%
Activity (Rattus norvegicus [2]): -18%
Activity (Rattus norvegicus [3]): 2%
IC50 (Hepatocyte; [20]): 41 µM
Activity (Rattus norvegicus [4]): 9%
Activity (Rattus norvegicus [5]): 8%
Activity (Rattus norvegicus [6]): 1%
